According to patent publication US6395760B1, “Pesticidal 1-arylpyrazoles” (Rhone-Poulenc Inc., priority 1997, dated 2002):

Tests used:
Parameters in all cases: key: ‘X’ means highly active; ‘+’ means moderately active; ‘−’ means low activity
[1] = system: Aphis gossypii; assay: Soil drench test (systemic activity), aphids on cotton plants; type: in vivo; conditions: 10.0 ppm soil concentration by weight, aphid counts at 5 DAT vs untreated control
Excerpt: (§1) The Soil Drench Test (Systemic Activity) Cotton and sorghum plants were established in pots. One day prior to treatment, each pot was infested with about 25 aphids of a mixed population. Cotton plants were infested with aphids and sorghum plants were infested with the greenbug. The selected compound of formula (I) was applied to the soil surface in a dilution that delivered the equivalent of 10.0 ppm soil concentration by weight. Aphid counts were obtained at 5 DAT (=days after treatment). The number of aphids on the treated plants was compared to the number of those on the untreated control plants.

[2] = system: Schizaphis graminum; assay: Soil drench test (systemic activity), greenbug on sorghum plants; type: in vivo; conditions: 10.0 ppm soil concentration by weight, counts at 5 DAT vs untreated control
Excerpt: as §1

[3] = system: Musca domestica; assay: Housefly bait/contact test; type: in vivo; conditions: 50 ppm in sugar water bait solution, adult houseflies, mortality after 24 hours
Excerpt: The Housefly Bait/Contact Test About 25 four to six-day-old adult houseflies were anesthetized and placed in a cage with a sugar water bait solution containing the compound. The concentration of the selected compound of formula (I) in the bait solution was 50 ppm.

[4] = system: A. gossypii; assay: Foliar application (contact test) with aphids; type: in vivo, Aphis gossypii; conditions: 100 ppm formulation sprayed to runoff on aphid-infested cotton plants, dead aphids counted three days after treatment
Excerpt: Foliar Application (Contact Test) with Aphids Aphid-infested cotton plants were placed on a revolving turntable, and sprayed to runoff with a 100 ppm formulation of the selected compound of formula (I). The treated, A. gossypii-infested plants were held for three days after treatment, after which the dead aphids were counted.

| SMILES | Systemic activity on aphids [1] | Systemic activity on greenbugs [2] | Activity on house flies by contact [3] | Foliar activity on aphids [4] |
| --- | --- | --- | --- | --- |
| CNc1c([S+](C)[O-])c(C2(C)OCCO2)nn1-c1c(Cl)cc(C(F)(F)F)cc1Cl (racemic) [Compound 39] | + | X | − |  |
| COC(C)(OC)c1nn(-c2c(Cl)cc(C(F)(F)F)cc2Cl)c(N)c1SC [Compound 1, 5-amino-1-[2,6-dichloro-4-(trifluoromethyl)phenyl]-3-[(1,1-dimethoxy)ethyl]-4-methylthio-1H-pyrazole] | X | X | X | + |
| COC(C)(OC)c1nn(-c2c(Cl)cc(C(F)(F)F)cc2Cl)c(N)c1[S+](C)[O-] (stereo not shown) [Compound 2] | + | X | X | X |
| CSc1c(C2(C)OCCO2)nn(-c2c(Cl)cc(C(F)(F)F)cc2Cl)c1N [Compound 3] | X | X | X | X |
| CSc1c(C2(C)OCC(C)O2)nn(-c2c(Cl)cc(C(F)(F)F)cc2Cl)c1N (stereo not shown) [Compound 4] | X | X | X | X |
| CC1(c2nn(-c3c(Cl)cc(C(F)(F)F)cc3Cl)c(N)c2S(C)(=O)=O)OCCO1 [Compound 5] | X | X | X | X |
| CSc1c(C2(C)OCC(CO)O2)nn(-c2c(Cl)cc(C(F)(F)F)cc2Cl)c1N (stereo not shown) [Compound 6] | + | X | − | − |
| CC1(c2nn(-c3c(Cl)cc(C(F)(F)F)cc3Cl)c(N)c2S(C)(=O)=O)OCC(CO)O1 (stereo not shown) [Compound 7] | X | X | + | X |
| CC1COC(C)(c2nn(-c3c(Cl)cc(C(F)(F)F)cc3Cl)c(N)c2S(C)(=O)=O)O1 (stereo not shown) [Compound 8] | X | X | X | X |
| C[S+]([O-])c1c(C2(C)OCCO2)nn(-c2c(Cl)cc(C(F)(F)F)cc2Cl)c1N (stereo not shown) [Compound 10, 5-amino-1-[2,6-dichloro-4-(trifluoromethyl)phenyl]-3-(2-methyl-1,3-dioxolane-2-yl)-4-methylsulfinyl-1H-pyrazole] | X | X | X | X |
| CC1COC(C)(c2nn(-c3c(Cl)cc(C(F)(F)F)cc3Cl)c(N)c2[S+](C)[O-])O1 (stereo not shown) [Compound 11] | X | X | X | X |
| CSc1c(C2(C)OCCCO2)nn(-c2c(Cl)cc(C(F)(F)F)cc2Cl)c1N [Compound 12] | X | X | X | X |
| CC1(c2nn(-c3c(Cl)cc(C(F)(F)F)cc3Cl)c(N)c2S(C)(=O)=O)OCCCO1 [Compound 13] |  | X | X | X |
| CSc1c(C2(C)OCC(CO)(CO)CO2)nn(-c2c(Cl)cc(C(F)(F)F)cc2Cl)c1N [Compound 14] | − |  | − | − |
| C[S+]([O-])c1c(C2(C)NCCS2)nn(-c2c(Cl)cc(C(F)(F)F)cc2Cl)c1N (stereo not shown) [Compound 15, 5-amino-1-[2,6-dichloro-4-(trifluoromethyl)phenyl]-3-(2-methylthiazolidine-2-yl)-4-methylsulfinyl-1H-pyrazole] | X | X | X | − |
| CSc1c(C2(C)SCCS2)nn(-c2c(Cl)cc(C(F)(F)F)cc2Cl)c1N [Compound 16, 5-amino-1-[2,6-dichloro-4-(trifluoromethyl)phenyl]-3-(2-methyl-1,3-dithiolane-2-yl)-4-methylthio-1H-pyrazole] | − | X | X | + |
| CC1(c2nn(-c3c(Cl)cc(C(F)(F)F)cc3Cl)c(N)c2S(C)(=O)=O)SCCS1 [Compound 17] | X | X | X | + |

| SMILES | Systemic activity on aphids [1] | Systemic activity on greenbugs [2] | Activity on house flies by contact [3] | Foliar activity on aphids [4] |
| --- | --- | --- | --- | --- |
| C[S+]([O-])c1c(C2(C)SCCS2)nn(-c2c(Cl)cc(C(F)(F)F)cc2Cl)c1N (stereo not shown) [Compound 18] | − | + | X | X |
| CSc1c(C2(C)SCC[S+]2[O-])nn(-c2c(Cl)cc(C(F)(F)F)cc2Cl)c1N (stereo not shown) [Compound 19] | − | + | X | X |
| C[S+]([O-])c1c(C2(C)SCC[S+]2[O-])nn(-c2c(Cl)cc(C(F)(F)F)cc2Cl)c1N (stereo not shown) [Compound 20] | − | − | X | − |
| CC1(c2nn(-c3c(Cl)cc(C(F)(F)F)cc3Cl)c(N)c2S(C)(=O)=O)SCC[S+]1[O-] (stereo not shown) [Compound 21] | − | − | X | − |
| CC1(c2nn(-c3c(Cl)cc(C(F)(F)F)cc3Cl)c(N)c2S(C)(=O)=O)[S+]([O-])CC[S+]1[O-] (stereo not shown) [Compound 22] | X | + | − | − |
| CC1(c2nn(-c3c(Cl)cc(C(F)(F)F)cc3Cl)c(N)c2S(C)(=O)=O)OCCS1 (stereo not shown) [Compound 23, 5-amino-1-[2,6-dichloro-4-(trifluoromethyl)phenyl]-3-(2-methyl-1,3-oxathiolane-2-yl)-4-methylsulfonyl-1H-pyrazole] | X |  | − |  |
| CSc1c(C2(C)OCCS2)nn(-c2c(Cl)cc(C(F)(F)F)cc2Cl)c1N (stereo not shown) [Compound 24] | X | X |  |  |
| CC1(c2nn(-c3c(Cl)cc(C(F)(F)F)cc3Cl)c(N)c2S(C)(=O)=O)S(=O)(=O)CCS1(=O)=O [Compound 25, 5-amino-1-[2,6-dichloro-4-(trifluoromethyl)phenyl]-3-(2-methyl-1,1,3,3-tetraoxo-1,3-dithiolane-2-yl)-4-methylsulfonyl-1H-pyrazole] | − |  | − |  |
| C[S+]([O-])c1c(C2(C)OCC(CO)O2)nn(-c2c(Cl)cc(C(F)(F)F)cc2Cl)c1N (stereo not shown) [Compound 26] | − | + | X | − |
| CSCC1COC(C)(c2nn(-c3c(Cl)cc(C(F)(F)F)cc3Cl)c(N)c2SC)O1 (stereo not shown) [Compound 27] | X | + | X | − |
| CSc1c(C2(C)OCC(C[S+](C)[O-])O2)nn(-c2c(Cl)cc(C(F)(F)F)cc2Cl)c1N (stereo not shown) [Compound 28] | X | − | X | X |
| C[S+]([O-])CC1COC(C)(c2nn(-c3c(Cl)cc(C(F)(F)F)cc3Cl)c(N)c2[S+](C)[O-])O1 (stereo not shown) [Compound 29] | X | − | X | X |
| CSCC1COC(C)(c2nn(-c3c(Cl)cc(C(F)(F)F)cc3Cl)c(N)c2S(C)(=O)=O)O1 (stereo not shown) [Compound 30] | X |  | − |  |
| C[S+]([O-])CC1COC(C)(c2nn(-c3c(Cl)cc(C(F)(F)F)cc3Cl)c(N)c2S(C)(=O)=O)O1 (stereo not shown) [Compound 31] | X |  | + | + |
| CCNc1c(SC)c(C2(C)OCCO2)nn1-c1c(Cl)cc(C(F)(F)F)cc1Cl [Compound 36] | X |  | X | + |
| CCNc1c([S+](C)[O-])c(C2(C)OCCO2)nn1-c1c(Cl)cc(C(F)(F)F)cc1Cl (stereo not shown) [Compound 37] | X |  | X | X |
| CNc1c(SC)c(C2(C)OCCO2)nn1-c1c(Cl)cc(C(F)(F)F)cc1Cl [Compound 38] | X | X | X |  |
